US20180134788A1, “Methods and Pharmaceutical Compositions (NTSR1 Inhibitors) for the Treatment of Hepatocellular Carcinomas” (INSERM (Institut National de la Sante et de la Recherche …, priority 2015, published 2018)

How the values were obtained:
[1] = system: NTSR1 expression in HEP 3B and PLC/PRF5 cells; assay: NTSR1 immunocytochemistry labeling in HCC cell lines; type: cell-based; settings: for NTSR1 expression: PLC/PRF5 and HEP3B, 48 h, 1 μM SB216763 or 5 μM SR48692
Method: (§1) (A) NTS, NTSR2, NTSR3, and NTSR1 transcript analysis from 400 ng of HuH7, HEP 3B, and PLC/RF5, total RNA. NTSR1 A and NTSR1 B show the amplicon from two different set of primers. (B) Typical immunocytochemistry labeling for NTSR1 and DAPI in HEP 3B and PLC/RF5 cells. Cells were seeded on glass slides, grown for 48 h, and immunocytochemistry was performed as described in the Materials and Methods section. (C) NTSR1 transcript analysis from HuH7, HEP 3B and PLC/RF5 of total RNA from cells treated or not with […] LiCl for 6 h. (D) Typical immunocytochemistry NTSR1 labeling of HEP 3B and PLC/RF5 cells treated with 1 μM SB 216763 for 6 h.
(§2) (A) Typical immunocytochemistry labeling for NTSR1 (Top) and EGFR (Bottom) in PLC/RF5 and HEP 3B cells treated or not with 1 μM SB216763 or 5 μM SR4892 or both for 48 h. (B and C) Representative western blot analyses of Tyr 1173 phosphorylated EGFR, EGFR, and actin of HEP 3B and PLC/RF5 treated as indicate above.
(§3) Among the three cell lines studied, only PLC/PRF5 cells presented a dysregulation in the beta catenin pathway with a deletion in Axin (E4/−). […] We previously hypothesized that NTSR1 expression was correlated with deregulated wnt/beta catenin pathways. To evaluate this hypothesis, we forced the cellular and nuclear relocation of β-catenin in these cells lines with the LiCl, and an inhibitor of the glycogen synthase kinase (GSK) 3β, the SB216763. LiCl and SB216763 are known to decrease the degradation of β-catenin by inhibiting GSK-3 and promoting the accumulation of β-catenin in the cytoplasm of liver cancer cells.
(§4) It was previously shown that the NTS/NTSR1 complex potentiates EGF signaling in liver, colon, prostate, lung, and breast cancer. We investigated the possible relation between NTSR1 expression and EGFR expression and activation. […] Treatment with SR48692, a specific NTSR1 antagonist, decreased the expression of EGFR, whereas NTSR1 expression was not altered. When the combined treatment with SB216763 and SR48692 is used, the effect of SB216763 on EFGR expression is limited by the presence of the NTSR1 antagonist (FIG. 5A).

[2] = system: EGFR expression in PLC/PRF5 and HEP3B cells; assay: EGFR immunocytochemistry labeling in HCC cell lines; type: cell-based; settings: for EGFR expression: PLC/PRF5 and HEP3B, 48 h, 1 μM SB216763 or 5 μM SR48692
Method: as §2, §4

[3] = system: phosphorylated-EGFR in HEP 3B and PLC/RF5 cells; assay: Western blot of Tyr 1173 phosphorylated EGFR in HCC cell lines; type: cell-based; settings: both cell lines
Method: as §2
In both cell lines, phosphorylated-EGFR was increased under SB216763 treatment this increase was abolished when SR 48692 was added to the treatment.

[4] = system: PLC-R1a and PLC-R2a cells; assay: Migration assay on type 1 collagen, PLC/PRF5 NTSR1 overexpressing clones; type: cell-based; settings: 5 μM SR 48692, vs DMSO
Method: (§5) (A) Speed of migration on type 1 collagen of HEP 3B and NTSR1 overexpressing clones treated or not with 1/100 NTS or 1/100 Long Fragment NTS antibody. Results represent the mean±SEM of 5 independent experiments. (B) Speed of migration on type 1 collagen of PLC/RF5 and NTSR1 overexpressing clones in the presence or not of 5 μM SR 48692. Results represent the mean±SEM of 3 independent experiments. (C) Numbers of invasive cells crossing the type I collagen in Boyden chamber when HEP 3B and NTSR1 overexpressing clones were treated or not with NTS or Long Fragment NTS antibody or 5 μM. SR 48692. Results are expressed relatively to wild type cells and represent the mean±SEM of 5 to 7 independent experiments.
Migration assays were used to evaluate the effect of NTS/NTSR1 on cancer cell migration, another hallmark contributing to the invasion and metastasis of cancers. The procedure described in the methods section allows the comparison of the migration speed between both cell lines at the same time over a period of 48 h, and on the intact type I collagen matrix. […] Similar observations were made with PLC/PRF5 cells and derivative clones.

[5] = system: HEP3B cells with upregulated NTSR1 (HEP-R1a, HEP-R1b); assay: Boyden chamber invasion on type-I collagen-coated inserts; type: cell-based; settings: HEP3B NTSR1 clones, 36 hours, 5 μM SR 48692 or antibodies
Method: as §5
In parallel, Boyden chambers were used to examine the invasiveness characteristics of HCC cancer cells, on type-I collagen-coated inserts over 36 hours incubation. Compared with HEP 3B cells, the number of invading cancer cells for HEP-R1a cells and HEP-R1b cells is increased by 211±19% (p<0.01) and 617±94% (p<0.01), respectively. To determine whether NTS contributes to cellular invasion, cells were exposed to the NTSR1 antagonist, or two antibodies directed against NTS or the long fragment NTS. […] In our hands, the PLC/PRF5 cells were very invasive.

HEP 3B tumors = assay: HEP 3B experimental tumor growth in mice; type: in vivo
Method: (§6) (A) Experimental tumors were generated from the HCC cancer cell line, HEP 3B and PLC/RF5 and the NTSR1-overexpressing subclones. Comparative growth curves of HEP 3B, HEP-R1a, PLC/RF5, PLC/R1 in 8, 7, 10 and 7 mice, respectively. Tumor volumes were measured twice a week. (B) Tumor weight at 42 days. (C and D) Experimental tumors were generated from HEP 3B or HEP-R1a in the different mice. When the tumor size reached 100 mm3, mice were randomly distributed in 2 groups. A control group force feed with H2O, or with 1 mg/kg SR 48692 every day. (E) Typical IHC performed on paraffin sections for NTS, NTSR1 EGFR and phosphorylated EGFR labelling, 200× magnification.
(§7) Experimental tumors were generated from HEP 3B (A) and HEP-R1a (B) in the same mice. Mice were treated per os with 75 mg/kg erlotinib every day for 22 days. Tumor size was measured every two days. Result shown is the ratio of tumor compare to day 1. (C) The doubling time was subsequently calculated using the following formula: doubling time=t*((LN(2))/(LN(VOL F/VOL I)), at day 22.
(§8) Experimental tumors were generated from HEP 3B (D) or HEP-R1a (E) in the different mice. When the tumor size reached 100 mm^3, mice were randomly distributed in 2 groups. A control group force feed with H2O, and the treated group, force feed every day with […] sorafenib. Result shown is the ratio of tumor compare to day 1. (F) Tumor weight at day 15.
(§9) To determine the contribution of NTS/NTSR1 complex on tumor progression, mice were implanted with HCC cell lines and NTSR1 overexpressing clones. For HEP3B cells the tumors were measurable 21 days after cells injection. In contrast, the tumor burden for both clones overexpressing NTSR1 was measurable at day 13. The growth rate at day 42 was 2.9 and 2.08 fold higher for HEP-R1a and PLC-R1a as compared to respective parental cells, respectively, (FIG. 7A). As shown in FIG. 7B the tumor weights were in correspondence with the tumor size 4.3 and 2.8 fold higher for HEP-R1a and PLC-R1a as compared to their respective parental cells, respectively. To confirm the contribution of NTS/NSTR1 complex in tumor growth, animals were treated with a specific NTSR1 antagonist, the SR 48692. When tumors reach 100 mm3, the groups were treated per os with H2O, or 1 mg/kg SR 48692, respectively. […] The final tumor size of HEP-R1a tumors treated with SR 48692 was 441.9±39.85 mm^3, and was very similar to the untreated HEP 3B tumors 516.3±139.72 mm^3.
As shown above, NTSR1 activation induced a sustained EGFR activation, which we believe, acts as EGFR driver mutation (FIG. 4). To explore this hypothesis, the HCC cell lines HEP 3B and HEP-R1a were xenografted on the same mice. The mice were randomly distributed in two groups based on the size of the HEP 3B tumors. Since HEP-R1a tumors grow faster than HEP 3B tumors, HEP 3B cells were injected a few days before HEP-R1a cells. In the control group, the average HEP3B tumor size was 168.2±38.1 mm3 and the HEP-R1a tumor size was 79.7±16.4 mm3 at day 1. The treated group carried HEP 3B tumors of 164.7±31.2 mm3 and HEP-R1a tumors of 87.2±19.13 mm3 at day 1. Mice were daily treated, per os, with 75 mg/kg erlotinib or H2O for 22 days. […] Over the period of the treatment, the doubling time of HEP-R1a tumors was 7.0±0.55 days and 10.1±1.1 (p=0.0016) for control and treated with erlotinib, respectively. For the HEP 3B tumors, the doubling time was similar 7.8±0.52 and 7.7±0.84 days for control and treated group respectively (FIG. 8 C). […]

HEP-R1a tumors = assay: HEP-R1a experimental tumor growth in mice; type: in vivo
Method: as §6, §7, §8, §9
As shown above, NTSR1 activation induced a sustained EGFR activation, which we believe, acts as EGFR driver mutation (FIG. 4). To explore this hypothesis, the HCC cell lines HEP 3B and HEP-R1a were xenografted on the same mice. The mice were randomly distributed in two groups based on the size of the HEP 3B tumors. Since HEP-R1a tumors grow faster than HEP 3B tumors, HEP 3B cells were injected a few days before HEP-R1a cells. In the control group, the average HEP3B tumor size was 168.2±38.1 mm3 and the HEP-R1a tumor size was 79.7±16.4 mm3 at day 1. The treated group carried HEP 3B tumors of 164.7±31.2 mm3 and HEP-R1a tumors of 87.2±19.13 mm3 at day 1. Mice were daily treated, per os, with 75 mg/kg erlotinib or H2O for 22 days. […] Over the period of the treatment, the doubling time of HEP-R1a tumors was 7.0±0.55 days and 10.1±1.1 (p=0.0016) for control and treated with erlotinib, respectively. For the HEP 3B tumors, the doubling time was similar 7.8±0.52 and 7.7±0.84 days for control and treated group respectively (FIG. 8 C).
Sorafenib is a known multikinase inhibitor targeting Raf/MEK/ERK signaling at the level of Raf kinase, angiogenesis, VEGFR-2/-3, and PDGFR-β tyrosine kinase. Sorafenib is currently used to treat HCC with some success. In order to evaluate the autocrine NTS regulation on sorafenib responses, each HEP 3B or HEP-R1a cells were injected to four groups of mice. When tumors reach 100 mm3, the groups were treated per os with H2O, 30 mg/kg sorafenib for 15 days, respectively. […]

[6] = system: HEP-R1b and HEP-R1a cells; assay: Clonogenic assay, NTSR1 overexpressing clones; type: cell-based; settings: two weeks
Method: (§10) (A) Cellular proliferation performed on HEP 3B and HEP-R1b cells. Results are the means of 3 independents experiments and expressed as percentage of respective control. (B) Clonogenic assay performed with HEP 3B and HEP-R1b cells treated with different dose of erlotinib. Cells were incubated for two weeks with the treatment. Results are the means of 6 independents experiments and expressed as percentage of respective control. (C) Cellular proliferation performed on HEP 3B and HEP-R1a cells. Results are the means of 6 independents experiments. (D) Clonogenic assay performed with HEP 3B and HEP-R1a cells treated with different dose of sorafenib. Cells were incubated for two weeks with the treatment. Results are the means of 6 independents experiments.
(§11) We confirmed the erlotinib and sorafenib responses in cells overexpressing NTSR1 in clonogenic assay. […] In contrast, HEP 3B cells are not sensitive either to erlotinib or sorafenib.

HEP 3B cells = assay: Clonogenic assay, HEP 3B cells; type: cell-based; settings: two weeks
Method: as §10, §11

[7] = system: cells overexpressing NTSR1 versus HEP 3B cells; assay: Cellular proliferation test; type: cell-based; settings: cells overexpressing NTSR1 compared with HEP 3B cells
Method: as §10, §11

advanced HCC = settings: patients with advanced HCC and well-compensated liver function, oral; cited from earlier work
[8] = system: NTSR1 transcription in HuH7, HEP 3B and PLC/PRF5 cells; assay: NTSR1 transcript analysis in HCC cell lines; type: cell-based; settings: three HCC cell lines, 20 nM LiCl for 6 h
Method: as §1, §3

[9] = 30 mg/kg sorafenib per os, 15 days

COc1cccc(OC)c1-c1cc(C(=O)NC2(C(=O)O)C3CC4CC(C3)CC2C4)nn1-c1ccnc2cc(Cl)ccc12 (stereo not shown) [SR48692]
NTSR1 expression [1]: not altered
EGFR expression [2]: decreased
effect of SB216763 on EGFR expression in presence of the NTSR1 antagonist ([2]; combined treatment 1 μM SB216763 and 5 μM SR48692, 48 h): limited
SB216763-induced increase of phosphorylated-EGFR ([3]; SR 48692 added to SB216763 treatment): abolished
decrease of migration speed ([4]; PLC-R1a cells): 27%
decrease of migration speed ([4]; PLC-R2a cells): 33%
increase of cellular invasion when NTSR1 is upregulated [5]: fully or partially abolished
tumor growth rate (HEP 3B tumors; HEP 3B tumors, 1 mg/kg SR 48692 per os every day): no influence
final tumor size (HEP-R1a tumors; 1 mg/kg SR 48692 per os): 441.9±39.85 mm^3
tumor growth rate (HEP-R1a tumors; 1 mg/kg SR 48692 per os every day): inhibited by two fold

CNC(=O)c1cc(Oc2ccc(NC(=O)Nc3ccc(Cl)c(C(F)(F)F)c3)cc2)ccn1 [sorafenib]
tumor growth rate (HEP 3B tumors; HEP 3B tumors, 30 mg/kg sorafenib per os, 15 days): no influence
tumor weight versus control (HEP 3B tumors; HEP 3B tumors, sorafenib treated group, end of treatment): approximately equal
final tumor size (HEP-R1a tumors; [9]): 400.3±59.9 mm3
tumor growth rate (HEP-R1a tumors; [9]): inhibited by two fold
tumor weight (HEP-R1a tumors; sorafenib treated group, end of treatment (day 15)): 0.650 ± 0.080 g
number of colonies ([6]; HEP-R1a cells exposed to sorafenib): markedly reduced
sensitivity in clonogenic assay (HEP 3B cells): not sensitive
sensitivity in cellular proliferation test [7]: more sensitive
survival (advanced HCC): prolong survival

[Cl-].[Li+] [LiCl]
NTSR1 transcription [8]: upregulated

C#Cc1cccc(Nc2ncnc3cc(OCCOC)c(OCCOC)cc23)c1 [erlotinib]
tumor growth response (HEP 3B tumors; HEP3B tumors, 75 mg/kg erlotinib per os daily, 22 days): did not respond
tumor doubling time (HEP 3B tumors; HEP 3B tumors, 75 mg/kg erlotinib, day 22): 7.7 ± 0.84 days
tumor growth rate (HEP-R1a tumors; 75 mg/kg erlotinib per os daily, 22 days): drastically affected
tumor doubling time (HEP-R1a tumors; 75 mg/kg erlotinib, day 22): 10.1 ± 1.1 days
number of colonies ([6]; HEP-R1b cells exposed to erlotinib): markedly reduced
sensitivity in clonogenic assay (HEP 3B cells): not sensitive
sensitivity in cellular proliferation test [7]: more sensitive

Cn1cc(C2=C(c3ccc(Cl)cc3Cl)C(=O)NC2=O)c2ccccc21 [SB216763]
NTSR1 immunolabeling signal ([1]; HEP3B and PLC/PRF5 cells, 1 μM SB 216763 for 6 h): remarkably amplified
NTSR1 expression [1]: increase
EGFR expression [2]: increase
phosphorylated-EGFR ([3]; SB216763 treatment): increased
